From patent publication US20020137929A1, “1 - (3-heterocyclylphenyl) isothiourea, -isourea, -guanidine and -amidine herbicidal agents” (Intellectual Property Department, BASF Aktiengesellschaft, priority 1998, published 2002)

Assays:
[1] = tested on: CASOB (Sicklepod); assay: Postemergence herbicidal evaluation; assay type: in vivo, Cassia obtusifolia; conditions: postemergence
Outline: (§1)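 First, seedlings were raised for around two weeks. Next, test material in 50/50 acetone/water containing 0.5% TWEEN 20 was sprayed through a nozzle at 40 psi, equivalent to about 0.0156–0.500 kg/ha. Finally, after 4–5 weeks in the greenhouse, plants were rated 0–9.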

[2] = tested on: CHEAL (Lambsquarters, Common); assay: Postemergence herbicidal evaluation; assay type: in vivo, Chenopodium album; conditions: postemergence
Outline: as §1

[3] = tested on: GALAP (Galium); assay: Postemergence herbicidal evaluation; assay type: in vivo, Galium aparine; conditions: postemergence
Outline: as §1

[4] = tested on: IPOHE (Morningglory, Ivyleaf); assay: Postemergence herbicidal evaluation; assay type: in vivo, Ipomoea hederacea; conditions: postemergence
Outline: as §1

[5] = tested on: ECHCG (Barnyardgrass); assay: Postemergence herbicidal evaluation; assay type: in vivo, Echinochloa crus-galli; conditions: postemergence
Outline: as §1

[6] = tested on: SETVI (Foxtail, Green); assay: Postemergence herbicidal evaluation; assay type: in vivo, Setaria viridis; conditions: postemergence
Outline: as §1

[7] = tested on: GLXMAW (Soybean, Williams); assay: Postemergence herbicidal evaluation; assay type: in vivo, Glycine max, (L.) Merr. cv Williams; conditions: postemergence
Outline: as §1

[8] = tested on: TRZAWR (Wheat, Winter, cv Riband); assay: Postemergence herbicidal evaluation; assay type: in vivo, Triticum aestivum; conditions: postemergence
Outline: as §1

[9] = tested on: ABUTH (Velvetleaf); assay: Preemergence herbicidal evaluation; assay type: in vivo, Abutilon theophrasti; conditions: rated 4-5 weeks after treatment
Outline: (§2)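 Seeds were mixed with potting soil and planted on about one inch of soil, then sprayed with test compound in aqueous acetone at about 0.0156 to 0.500 kg per hectare. Plants grew under standard greenhouse care and were visually rated 0-9 against untreated controls 4-5 weeks post-treatment.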

[10] = tested on: ECHCG (Barnyardgrass); assay: Preemergence herbicidal evaluation; assay type: in vivo, Echinochloa crus-galli; conditions: rated 4-5 weeks after treatment
Outline: as §2

[11] = tested on: ZEAMX (Corn, Field); assay: Preemergence herbicidal evaluation; assay type: in vivo, Zea mays; conditions: rated 4-5 weeks after treatment
Outline: as §2

[12] = tested on: CYPIR (Rice Flatsedge); assay: Preemergence weed control under flooded paddy conditions; assay type: in vivo, Cyperus iria; conditions: rated 3-4 weeks after treatment
Outline: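 Silt loam, seeds in top 0.5 cm; flood held 1.5-3 cm; test cpd as acetone/water 50/50 into flood water, ~0.0313-0.500 kg/ha a.i.; greenhouse 3-4 wk; visual 0-9 score vs control.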

[13] = tested on: MOOVA (Monochoria); assay: as above; assay type: in vivo, Monochoria vaginalis; conditions: rated 3-4 weeks after treatment
Outline: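 Using flooded silt loam (water 1.5 to 3 cm deep), seeds sown in the top 0.5 cm were exposed preemergence to compound pipetted into the flood at about 0.0313 to 0.500 kg/ha. Effects were scored 0-9 by eye three to four weeks later.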

C=CCN1C(=O)C(CC(=O)NS(=O)(=O)C(C)C)SC1=Nc1cc(-n2c(=O)cc(C(F)(F)F)n(C)c2=O)c(F)cc1Cl (centres unmarked) [Compound 118, 3-Allyl-2-{{2-chloro-5-[3,6-dihydro-3-methyl-2,6-dioxo-4-(trifluoromethyl)-1(2H)-pyrimidinyl]-4-fluorophenyl}imino}-N-(isopropylsulfonyl)-4-oxo-5-thiazolidineacetamide]
herbicidal rating CASOB ([1]; rate 0.0158 kg/ha): 0.0
herbicidal rating CASOB ([1]; rate 0.0315 kg/ha): 0.0
herbicidal rating CASOB ([1]; rate 0.0630 kg/ha): 0.0
herbicidal rating CHEAL ([2]; rate 0.0158 kg/ha): 0.0
herbicidal rating CHEAL ([2]; rate 0.0315 kg/ha): 0.0
herbicidal rating CHEAL ([2]; rate 0.0630 kg/ha): 5.0
herbicidal rating GALAP ([3]; rate 0.0158 kg/ha): 0.0
herbicidal rating GALAP ([3]; rate 0.0315 kg/ha): 0.0
herbicidal rating GALAP ([3]; rate 0.0630 kg/ha): 1.0
herbicidal rating IPOHE ([4]; rate 0.0158 kg/ha): 1.0
herbicidal rating IPOHE ([4]; rate 0.0315 kg/ha): 7.0
herbicidal rating IPOHE ([4]; rate 0.0630 kg/ha): 9.0
herbicidal rating ECHCG ([5]; rate 0.0158 kg/ha): 0.0
herbicidal rating ECHCG ([5]; rate 0.0315 kg/ha): 1.0
herbicidal rating ECHCG ([5]; rate 0.0630 kg/ha): 1.0
herbicidal rating SETVI ([6]; rate 0.0158 kg/ha): 0.0
herbicidal rating SETVI ([6]; rate 0.0315 kg/ha): 0.0
herbicidal rating SETVI ([6]; rate 0.0630 kg/ha): 4.0
herbicidal rating GLXMAW ([7]; rate 0.0158 kg/ha): 4.5
herbicidal rating GLXMAW ([7]; rate 0.0315 kg/ha): 5.0
herbicidal rating GLXMAW ([7]; rate 0.0630 kg/ha): 6.0
herbicidal rating TRZAWR ([8]; rate 0.0158 kg/ha): 2.0
herbicidal rating TRZAWR ([8]; rate 0.0315 kg/ha): 2.0
herbicidal rating TRZAWR ([8]; rate 0.0630 kg/ha): 2.0
Preemergence herbicidal rating ABUTH ([9]; rate 0.0625 kg/ha): 9.0
Preemergence herbicidal rating ABUTH ([9]; rate 0.1250 kg/ha): 9.0
Preemergence herbicidal rating ABUTH ([9]; rate 0.2500 kg/ha): 7.0
Preemergence herbicidal rating ECHCG ([10]; rate 0.0625 kg/ha): 0.0
Preemergence herbicidal rating ECHCG ([10]; rate 0.1250 kg/ha): 0.0
Preemergence herbicidal rating ECHCG ([10]; rate 0.2500 kg/ha): 0.0
Preemergence herbicidal rating ZEAMX ([11]; rate 0.0625 kg/ha): 0.0
Preemergence herbicidal rating ZEAMX ([11]; rate 0.1250 kg/ha): 0.0
Preemergence herbicidal rating ZEAMX ([11]; rate 0.2500 kg/ha): 0.0
herbicidal effect rating, CYPIR ([12]; 0.0313 kg/ha): 0.0
herbicidal effect rating, CYPIR ([12]; 0.0625 kg/ha): 0.0
herbicidal effect rating, CYPIR ([12]; 0.1250 kg/ha): 0.0
herbicidal effect rating, CYPIR ([12]; 0.2500 kg/ha): 0.0
herbicidal effect rating, MOOVA ([13]; 0.0313 kg/ha): 4.0
herbicidal effect rating, MOOVA ([13]; 0.0625 kg/ha): 4.0
herbicidal effect rating, MOOVA ([13]; 0.1250 kg/ha): 6.0
herbicidal effect rating, MOOVA ([13]; 0.2500 kg/ha): 7.0
